This note sets out measurements from ChEMBL document CHEMBL1201862, “PubChem BioAssay data set” (2004).

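Cultured in 96-well plates, cells were exposed to test compound for 48 hours across five concentrations. GI50 marks 50% less growth.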 Calls of active or inactive are those of the source. Cut-off read from the data, not from the text of the source: active = GI50 up to about 1.1 µM and inactive = higher.

Among the test systems are SK-OV-3; NCI-H226; MDA-N; U-251; SK-MEL-2; CCRF-CEM; K562; CAKI-1; SF-295; SF-539; SNB-19; MCF7; NCI-H522; UO-31; TK-10; NCI/ADR-RES; A549; NCI-H23; HCT-15.
Common to all, as to test: NCI anticancer screen, dose series, 48 h

On to `CC(=O)c1cccc(NC(=O)/C(=N\NC(=S)NN)C2C(=O)Nc3ccccc3[S+]2[O-])c1` (configuration not stated), for which the GI50 in the assay on SK-OV-3, with NCI-H226, with MDA-N, with U-251, with SK-MEL-2 and with CCRF-CEM was > 100 µM (inactive) each time. Also, the GI50 in the assay with K562, in the assay with CAKI-1, with SF-295, in the assay with SF-539, with SNB-19 and with MCF7 was > 100 µM (inactive) throughout. Besides, the GI50 in the assay on NCI-H522, with UO-31, with TK-10, in the assay with NCI/ADR-RES, with A549 and with NCI-H23 was > 100 µM (inactive) throughout.
`Cc1ccc2c(=O)c(C(=O)NNC(=S)NC3CCCCC3)c[nH]c2n1`: the GI50 in the assay with NCI-H226 was 23.9 µM (inactive); in the assay with MDA-N, 31.6 µM (inactive); with U-251, 65.9 µM (inactive); in the assay with SK-MEL-2, 65.9 µM (inactive); with CCRF-CEM it was 99.5 µM (inactive); in the assay with K562 it was 30.6 µM (inactive). Also, the GI50 is more than 100 µM with HCT-15; 59.2 µM (inactive) in the assay with CAKI-1; 56.8 µM (inactive) in the assay on SF-295; > 100 µM (inactive) in the assay with SNB-19; 83.6 µM (inactive) with MCF7; 51.6 µM (inactive) in the assay on NCI-H522. For the same compound, the GI50 with UO-31 was > 100 µM (inactive); with TK-10, > 100 µM (inactive); in the assay on NCI/ADR-RES, > 100 µM (inactive); with A549 it was > 100 µM (inactive); in the assay with NCI-H23 it was 94.8 µM (inactive).
Consider `O=C1NC(c2c(Cl)cccc2Cl)Nc2ccccc21` (configuration not stated), for which the GI50 in the assay with SK-OV-3 is > 100 µM (inactive); in the assay with NCI-H226, 40.2 µM (inactive); in the assay on MDA-N, 21.5 µM (inactive); in the assay with U-251, 36.3 µM (inactive); with SK-MEL-2 it was 82.2 µM (inactive); in the assay with CCRF-CEM, > 10 µM (inactive). For the same compound, the GI50 in the assay with HCT-15 is 49.7 µM; with CAKI-1 it was 18.5 µM (inactive); in the assay on SF-295, 47.3 µM (inactive); in the assay on SF-539, 47.1 µM (inactive); with SNB-19, 71.3 µM (inactive); in the assay on MCF7 it was 47.3 µM (inactive). The GI50 was 25.9 µM (inactive) in the assay on NCI-H522; > 100 µM (inactive) in the assay with UO-31; > 100 µM (inactive) in the assay with TK-10; 21.8 µM (inactive) in the assay on NCI/ADR-RES; 54.6 µM (inactive) in the assay on A549.
In the case of `COc1cc([N+](=O)[O-])c(OC)c2c(Nc3ccc(S(=O)(=O)O)c4cc(S(=O)(=O)O)cc(S(=O)(=O)O)c34)cc(C)nc12`, the GI50 with SK-OV-3, with NCI-H226, in the assay on MDA-N, in the assay with U-251, with SK-MEL-2 and with CCRF-CEM was > 100 µM (inactive) throughout. In addition, the GI50 in the assay on CAKI-1, with SF-539, with MCF7, with NCI-H522, in the assay with UO-31 and in the assay with TK-10 was > 100 µM (inactive) throughout. Moreover, the GI50 in the assay with NCI/ADR-RES, with A549 and in the assay on NCI-H23 was > 100 µM (inactive) each time.
